Laboratory results taken from patent US4755513A, “Antimicrobial 1-substituted phenyl-4-oxoquinoline-3-carboxylic acid compounds” (Otsuka Pharmaceutical Company, Limited, priority 1985, dated 1988).

How the values were obtained:
Test in all cases: MIC by serial dilution method on agar plate
Type in all cases: cell-based
[1] = test system: Staphylococcus aureus FDA 209P
Source text: (§1) The microorganisms were used in a concentration of 1×10^8 cells/ml (O.D. 660 mμ, 0.07-0.16) and 1×10^6 cells/ml (100 folds dilution).

[2] = test system: Staphylococcus pyrogens IID S-23; details: 1 × 10^8 cells/ml
Source text: as §1

[3] = test system: Acinetobacter calcoaceticus AC-54
Source text: (§2) Chemotherapy, 22, 1126-1128 (1974)]. The microorganisms were used in a concentration of 1×10^8 cells/ml (O.D. 660 mμ, 0.07-0.16) and 1×10^6 cells/ml (100 folds dilution).

[4] = test system: Bacillus subtilis ATCC 6633
Source text: as §2

[5] = test system: Escherichia coli NIHJ JC-2
Source text: as §2

Escherichia coli No. 29 = test system: Escherichia coli No. 29
Source text: as §2

[6] = test system: Klebsiella pneumoniae NCTC 9632
Source text: as §2

[7] = test system: Proteus inconstans IFO 12930
Source text: as §2

[8] = test system: Proteus morganii IID Kono
Source text: as §2

[9] = test system: Pseudomonas aeruginosa ATCC 10145
Source text: as §2

[10] = test system: Pseudomonas aeruginosa E-2
Source text: as §2

[11] = test system: Serratia marcescens IFO 12648
Source text: as §2

[12] = test system: Streptococcus faecalis IFO 12580
Source text: as §2

Row | Substance | minimum inhibitory concentration (MIC) ([1]; 1 × 10^6 cells/ml) | minimum inhibitory concentration (MIC) ([1]; 1 × 10^8 cells/ml) | minimum inhibitory concentration (MIC) ([3]; 1 × 10^6 cells/ml) | minimum inhibitory concentration (MIC) ([3]; 1 × 10^8 cells/ml) | minimum inhibitory concentration (MIC) ([4]; 1 × 10^6 cells/ml) | minimum inhibitory concentration (MIC) ([4]; 1 × 10^8 cells/ml) | minimum inhibitory concentration (MIC) ([5]; 1 × 10^6 cells/ml) | minimum inhibitory concentration (MIC) ([5]; 1 × 10^8 cells/ml) | minimum inhibitory concentration (MIC) (Escherichia coli No. 29; 1 × 10^6 cells/ml) | minimum inhibitory concentration (MIC) (Escherichia coli No. 29; 1 × 10^8 cells/ml) | minimum inhibitory concentration (MIC) ([6]; 1 × 10^6 cells/ml) | minimum inhibitory concentration (MIC) ([6]; 1 × 10^8 cells/ml) | minimum inhibitory concentration (MIC) ([7]; 1 × 10^6 cells/ml) | minimum inhibitory concentration (MIC) ([7]; 1 × 10^8 cells/ml) | minimum inhibitory concentration (MIC) ([8]; 1 × 10^6 cells/ml) | minimum inhibitory concentration (MIC) ([8]; 1 × 10^8 cells/ml) | minimum inhibitory concentration (MIC) ([9]; 1 × 10^6 cells/ml) | minimum inhibitory concentration (MIC) ([9]; 1 × 10^8 cells/ml) | minimum inhibitory concentration (MIC) ([10]; 1 × 10^6 cells/ml) | minimum inhibitory concentration (MIC) ([10]; 1 × 10^8 cells/ml) | other results
1 | 6,8-Difluoro-1-(4-fluorophenyl)-7-(1-piperazinyl)-1,4-dihydro-4-oxoquinoline-3-carboxylic acid [Test Compd. No. 2] | 0.195 | 0.195 | 0.781 | 1.56 | 0.097 | 0.195 | < 0.048 | < 0.048 | < 0.048 | < 0.048 | 0.097 | 0.195 | 1.56 | 3.12 | 0.781 | 1.56 | 1.56 | 1.56 | 1.56 | 1.56 | minimum inhibitory concentration (MIC) [2]: 6.25; minimum inhibitory concentration (MIC) ([11]; 1 × 10^6 cells/ml): 0.39; minimum inhibitory concentration (MIC) ([11]; 1 × 10^8 cells/ml): 0.781; minimum inhibitory concentration (MIC) ([12]; 1 × 10^6 cells/ml): 0.781; minimum inhibitory concentration (MIC) ([12]; 1 × 10^8 cells/ml): 1.56
2 | 6,8-Difluoro-1-(4-hydroxy-2-fluorophenyl)-7-(1-piperazinyl)-1,4-dihydro-4-oxoquinoline-3-carboxylic acid [Example 5] | 0.097 | 0.097 | 0.39 | 0.781 | 0.195 | 0.39 | < 0.048 | 0.097 | < 0.048 | 0.097 | 0.097 | 0.097 | 1.56 | 3.12 | 0.781 | 1.56 | 1.56 | 3.12 | 1.56 | 1.56 | minimum inhibitory concentration (MIC) ([11]; 1 × 10^6 cells/ml): 0.781; minimum inhibitory concentration (MIC) ([11]; 1 × 10^8 cells/ml): 0.781; minimum inhibitory concentration (MIC) ([12]; 1 × 10^6 cells/ml): 0.781; minimum inhibitory concentration (MIC) ([12]; 1 × 10^8 cells/ml): 1.56
